Source: patent US20100087650A1, “(1R,1'R)-ATRACURIUM SALTS SEPARATION PROCESS” (CHEMAGIS LTD., priority 2007, published 2010)

What was measured:
[1] = Stability of (1R,1′R)-atracurium besylate sample solution at pH 1.0 and 2.0 (nitrate buffer) at room temperature and 4° C.; assay type: physicochemical
Experimental: A sample solution of (1R,1′R)-atracurium besylate (10 mg/ml) was prepared using two buffer solutions at pH values of 1.0 and 2.0 and analyzed on the C18 stationary phase by gradient elution [20 mM KNO3 buffer (at pH corresponding to sample preparation)—methanol]. […] [formula] wherein, X0=% of cisatracurium at T0, and X6/26=% of cisatracurium at after 6 or 26 hours.

[2] = Stability of (1R,1′R)-atracurium besylate at different pH values in Na+CH3COO−/CH3COOH buffer; assay type: physicochemical; details: T0 to 21.0 hours
[3] = Stability of (1R,1′R)-atracurium besylate solution in different buffers at room temperature (HPLC, USP procedure); assay type: physicochemical; details: for % of cisatracurium besylate after 24 hours / % of cisatracurium besylate at T = 0: 90% buffer/10% methanol
Experimental: (§1) The stability of the (1R,1′R)-atracurium besylate solution at room temperature for time periods of up to 24 hours was checked using different types of buffers (varying by the nature of the cation and the anion). The diluent was a mixture of 90% buffer and 10% methanol. The Cation concentration in each buffer was 20 mM. The HPLC conditions were according to the USP procedure. The results are depicted in Tables 11 and 12. The degradation (D), according to the data presented in Table 11, was calculated as follows: [formula] wherein, X0=% of cisatracurium at T0, and X24=% of cisatracurium at after 24 hours.

[4] = more potent than atracurium besylate itself; cited from earlier work
[5] = Stability of (1R,1′R)-atracurium besylate at different pH values in Na+CH3COO−/CH3COOH buffer; assay type: physicochemical; details: for % degradation: T0 to 21.0 hours
Experimental: as §1, with “12. […]” for “12.”, “(D)” for “(D),”, “12” for “11,”, “X21=%” for “X24=%”

[6] = pH = 1, room temperature, 6 hours
[7] = pH = 1, room temperature, 26 hours
[8] = pH = 2, room temperature, 6 hours
[9] = CaBr2/HBr buffer pH 3.5, 20 mM cation
[10] = K+H2PO4 buffer pH 3.0, 20 mM cation
[11] = NH4+CH3COO−/CH3COOH buffer pH 3.5, 20 mM cation
[12] = NH4+CH3COO−/HCOOH buffer pH 3.5, 20 mM cation
[13] = Na+CH3COO−/CH3COOH buffer pH 3.5, 20 mM cation
[14] = Na+NO3−/HNO3 buffer pH 3.0, 20 mM cation
[15] = diethylamine/CH3COOH buffer pH 3.5, 20 mM cation
[16] = triethylamine/CH3COOH buffer pH 3.5, 20 mM cation

% area of the cis-cis isomer ([1]; pH = 1, 4° C., 0 hours): 54.9%
% area of the cis-cis isomer ([1]; pH = 1, 4° C., 6 hours): 53.9%
D, % (degradation) ([1]; pH = 1, 4° C., 6 hours): 1.8%
% area of the cis-cis isomer ([1]; pH = 1, 4° C., 26 hours): 52.8%
D, % (degradation) ([1]; pH = 1, 4° C., 26 hours): 3.8%
% area of the cis-cis isomer ([1]; pH = 1, room temperature, 0 hours): 54.9%
% area of the cis-cis isomer [1, 6]: 50.2%
D, % (degradation) [1, 6]: 8.6%
% area of the cis-cis isomer [1, 7]: 38.8%
D, % (degradation) [1, 7]: 29.3%
% area of the cis-cis isomer ([1]; pH = 2, 4° C., 0 hours): 54.8%
% area of the cis-cis isomer ([1]; pH = 2, 4° C., 6 hours): 54.8%
D, % (degradation) ([1]; pH = 2, 4° C., 6 hours): 0%
% area of the cis-cis isomer ([1]; pH = 2, 4° C., 26 hours): 54.7%
D, % (degradation) ([1]; pH = 2, 4° C., 26 hours, nitrate buffer): 0.2%
% area of the cis-cis isomer ([1]; pH = 2, room temperature, 0 hours): 54.8%
% area of the cis-cis isomer [1, 8]: 54.5%
D, % (degradation) [1, 8]: 0.5%
% area of the cis-cis isomer ([1]; pH = 2, room temperature, 26 hours): 53.8%
D, % (degradation) ([1]; pH = 2, room temperature, 26 hours, nitrate buffer): less than 2%
D, % (degradation) ([1]; pH = 2, room temperature, 26 hours, nitrate buffer, listed as cis-cis isomer): 1.8%
stability under the separation conditions ([1]; separation conditions of the invention (mildly acidic or buffered aqueous mobile phase)): substantially stable
% degradation ([2]; pH 3.0, Na+CH3COO−/CH3COOH buffer): 6.4%
% degradation ([2]; pH 4.0, Na+CH3COO−/CH3COOH buffer): 10.3%
% degradation ([2]; pH 5.0, Na+CH3COO−/CH3COOH buffer): 28.4%
% degradation ([2]; pH 5.5, Na+CH3COO−/CH3COOH buffer): 48.1%
% of cisatracurium besylate after 24 hours [3, 9]: 54.4%
% of cisatracurium besylate at T = 0 [3, 9]: 54.4%
% degradation ([3]; CaBr2/HBr buffer pH 3.5, 24 hours): 0%
% of cisatracurium besylate after 24 hours [3, 10]: 53.7%
% of cisatracurium besylate at T = 0 [3, 10]: 54.7%
% degradation ([3]; K+H2PO4 buffer pH 3.0, 24 hours): 1.8%
% of cisatracurium besylate after 24 hours [3, 11]: 52.9%
% of cisatracurium besylate at T = 0 [3, 11]: 54.7%
% degradation ([3]; NH4+CH3COO−/CH3COOH buffer pH 3.5, 24 hours): 3.3%
% of cisatracurium besylate after 24 hours [3, 12]: 54.3%
% of cisatracurium besylate at T = 0 [3, 12]: 54.6%
% degradation ([3]; NH4+CH3COO−/HCOOH buffer pH 3.5, 24 hours): 0.5%
% of cisatracurium besylate after 24 hours [3, 13]: 52.5%
% of cisatracurium besylate at T = 0 [3, 13]: 54.5%
% degradation ([3]; Na+CH3COO−/CH3COOH buffer pH 3.5, 24 hours): 3.7%
% of cisatracurium besylate after 24 hours [3, 14]: 54.5%
% of cisatracurium besylate at T = 0 [3, 14]: 54.5%
% degradation ([3]; Na+NO3−/HNO3 buffer pH 3.0, 24 hours): 0%
% of cisatracurium besylate after 24 hours [3, 15]: 53.2%
% of cisatracurium besylate at T = 0 [3, 15]: 54.7%
% degradation ([3]; diethylamine/CH3COOH buffer pH 3.5, 24 hours): 2.7%
% of cisatracurium besylate after 24 hours [3, 16]: 52.1%
% of cisatracurium besylate at T = 0 [3, 16]: 54.4%
% degradation ([3]; triethylamine/CH3COOH buffer pH 3.5, 24 hours): 4.2%
% of cisatracurium besylate ([5]; pH 3.0, Na+CH3COO−/CH3COOH buffer, 0.0 hours): 53.4%
% of cisatracurium besylate ([5]; pH 3.0, Na+CH3COO−/CH3COOH buffer, 10.0 hours): 51.3%
% of cisatracurium besylate ([5]; pH 3.0, Na+CH3COO−/CH3COOH buffer, 21.0 hours): 50.0%
change of % area of the 1R-cis,1′R-cis isomer (FIG. 7) ([5]; pH 3, after 20 hours): only slightly reduced
% of cisatracurium besylate ([5]; pH 3.5, Na+CH3COO−/CH3COOH buffer, 0.0 hours): 53.6%
% of cisatracurium besylate ([5]; pH 3.5, Na+CH3COO−/CH3COOH buffer, 10.0 hours): 51.0%
% of cisatracurium besylate ([5]; pH 3.5, Na+CH3COO−/CH3COOH buffer, 21.0 hours): 49.2%
% degradation ([5]; pH 3.5, Na+CH3COO−/CH3COOH buffer): 8.2%
% of cisatracurium besylate ([5]; pH 4.0, Na+CH3COO−/CH3COOH buffer, 0.0 hours): 53.4%
% of cisatracurium besylate ([5]; pH 4.0, Na+CH3COO−/CH3COOH buffer, 10.0 hours): 50.5%
% of cisatracurium besylate ([5]; pH 4.0, Na+CH3COO−/CH3COOH buffer, 21.0 hours): 47.9%
% of cisatracurium besylate ([5]; pH 4.5, Na+CH3COO−/CH3COOH buffer, 0.0 hours): 53.9%
% of cisatracurium besylate ([5]; pH 4.5, Na+CH3COO−/CH3COOH buffer, 10.0 hours): 49.9%
% of cisatracurium besylate ([5]; pH 4.5, Na+CH3COO−/CH3COOH buffer, 21.0 hours): 46.2%
% degradation ([5]; pH 4.5, Na+CH3COO−/CH3COOH buffer): 14.3%
% of cisatracurium besylate ([5]; pH 5.0, Na+CH3COO−/CH3COOH buffer, 0.0 hours): 53.6%
% of cisatracurium besylate ([5]; pH 5.0, Na+CH3COO−/CH3COOH buffer, 10.0 hours): 46.1%
% of cisatracurium besylate ([5]; pH 5.0, Na+CH3COO−/CH3COOH buffer, 21.0 hours): 38.4%
% of cisatracurium besylate ([5]; pH 5.5, Na+CH3COO−/CH3COOH buffer, 0.0 hours): 53.6%
% of cisatracurium besylate ([5]; pH 5.5, Na+CH3COO−/CH3COOH buffer, 10.0 hours): 40.8%
% of cisatracurium besylate ([5]; pH 5.5, Na+CH3COO−/CH3COOH buffer, 21.0 hours): 27.8%
change of % area of the 1R-cis,1′R-cis isomer (FIG. 7) ([5]; pH 5.5, after 20 hours): significantly reduced
SMILES: COc1ccc(C[C@@H]2c3cc(OC)c(OC)cc3CC[N@+]2(C)CCC(=O)OCCCCCOC(=O)CC[N@@+]2(C)CCc3cc(OC)c(OC)cc3[C@H]2Cc2ccc(OC)c(OC)c2)cc1OC [cisatracurium besylate, 1R-cis-1′R-cis-2,2′2,2′-[1,5-pentanediylbis[oxy(3-oxo-3,1-propanediyl)]]bis[1-[(3,4-dimethoxyphenyl)methyl]-1,2,3,4-tetrahydro-6,7-dimethoxy-2-methyl-isoquinolinium dibenzenesulfonate]
potency relative to atracurium besylate [4]: 3-4 times
